One block for each compound: values may come before it.
Key:
ER-α = target: T1, ER-α (Rattus norvegicus, UniProt P06211); test: ER-α transactivation, ERE-LUC in COS or 293 cells; type: cell-based; set-up: % estardiol activity, ER-α: dose or concentration left out as unconfirmed
T1 sequence (P06211 1-600): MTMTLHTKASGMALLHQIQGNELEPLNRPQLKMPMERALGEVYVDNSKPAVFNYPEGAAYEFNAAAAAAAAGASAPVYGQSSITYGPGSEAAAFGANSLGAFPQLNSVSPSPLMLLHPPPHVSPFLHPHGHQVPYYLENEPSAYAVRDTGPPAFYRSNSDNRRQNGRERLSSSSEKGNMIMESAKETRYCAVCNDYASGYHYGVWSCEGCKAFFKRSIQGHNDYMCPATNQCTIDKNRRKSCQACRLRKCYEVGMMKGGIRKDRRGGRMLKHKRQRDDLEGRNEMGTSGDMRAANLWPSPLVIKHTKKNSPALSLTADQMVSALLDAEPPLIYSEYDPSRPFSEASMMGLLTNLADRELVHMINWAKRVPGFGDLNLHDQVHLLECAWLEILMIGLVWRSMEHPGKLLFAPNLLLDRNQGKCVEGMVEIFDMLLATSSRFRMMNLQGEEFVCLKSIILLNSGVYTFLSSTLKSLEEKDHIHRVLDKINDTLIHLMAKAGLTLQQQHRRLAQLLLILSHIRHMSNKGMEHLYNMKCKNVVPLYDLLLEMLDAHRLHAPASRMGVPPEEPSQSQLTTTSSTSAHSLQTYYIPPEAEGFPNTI
Description: FIG. 1: Effects of the indicated compounds on ER-α transactivation. COS or 293 cells plated in DME without phenol red+10% charcoal stripped fetal bovine serum (csFBS) at 90,000 cells per well of 24 well plates were transfected with 0.25 μg ERE-LUC, 0.02 μg CMV-LUC (Renilla) and 25 ng of ER-α by lipofectamine. Twenty four hours after transfection, the cells were treated as indicated in the figure, harvested 48 hrs after transfection and were assayed for firefly and renilla luciferase.
(§1) FIG. 5: Effect of the indicated compounds on ER-α transactivation. COS or 293 cells plated in DME without phenol red+10% csFBS at 90,000 cells per well of a 24 well plate were transfected with 0.25 μg ERE-LUC, 0.02 μg CMV-LUC (Renilla) and 5 ng of ER-α by lipofectamine. Twenty four hours after transfection, the cells were treated as indicated in the figure, harvested 48 hrs after transfection and were assayed for firefly and renilla luciferase.
as §1, with “FIG. 9:” for “FIG. 5:”, “csFBS” for “csFBS at 90,000 cells”, “and 25” for “and 5”
Also 25 ng of ER-α (FIGS. 1, 5, and 9), 50 ng of ER-β (FIGS. 2, 6 and 10) or 12.5 ng of AR (FIG. 3) were introduced by lipofectamine. All the receptors were cloned from rat tissue into the PCR3.1 vector backbone. […] Cells were harvested 48 hrs after transfection, and assayed for firefly and Renilla luciferase activity.
Also 25 ng of ER-α), 50 ng of ER-β or 12.5 ng of AR were introduced by lipofectamine. All the receptors were cloned from rat tissue into the PCR3.1 vector backbone. […] Cells were harvested 48 hrs after transfection, and assayed for firefly and Renilla luciferase activity.

uterus = test: In vivo estrogenic activity, uterine weight; set-up: species or system rat; conditions: female rats, compound alone
Description: Rats that were administered the vehicle alone served as controls.

osteoblasts = test: Osteoblast activity; type: cell-based
[1] = system: TRAP positive multinucleated osteoclasts; test: TRAP positive multinucleated osteoclasts from bone marrow cells; type: cell-based, rat; conditions: RANKL and GMCSF, 12 days
Description: FIG. 7: Effect of the indicated compounds on TRAP positive multinucleated osteoclasts. Bone marrow cells from rat femur was cultured in Alpha MEM+10% csFBS without phenol red in the presence or absence of 30 ng/ml RANKL and 10 ng/ml GMCSF. The cells were treated for 12 days and were stained for tartarate resistant acid phosphatase activity (TRAP) and multinucleated osteoclasts were counted.
Bone marrow cells isolated from rat femur were cultured in Alpha MEM without phenol red+10% sterile FBS without phenol red in the presence or absence of […] RANKL and 10 ng/ml GMCSF. The cells were treated for 12 days were stained for tartarate resistant acid phosphatase activity (TRAP) positive multinucleated osteoclasts and were counted.

ER-β = target: T2, ER-β (Rattus norvegicus, UniProt Q62986); test: ER-β transactivation, ERE-LUC in COS or 293 cells; type: cell-based; conditions: COS or 293 cells
T2 construct: expressed in transfected cells; host or cells: COS or 293 cells
T2 sequence (Q62986 whole entry): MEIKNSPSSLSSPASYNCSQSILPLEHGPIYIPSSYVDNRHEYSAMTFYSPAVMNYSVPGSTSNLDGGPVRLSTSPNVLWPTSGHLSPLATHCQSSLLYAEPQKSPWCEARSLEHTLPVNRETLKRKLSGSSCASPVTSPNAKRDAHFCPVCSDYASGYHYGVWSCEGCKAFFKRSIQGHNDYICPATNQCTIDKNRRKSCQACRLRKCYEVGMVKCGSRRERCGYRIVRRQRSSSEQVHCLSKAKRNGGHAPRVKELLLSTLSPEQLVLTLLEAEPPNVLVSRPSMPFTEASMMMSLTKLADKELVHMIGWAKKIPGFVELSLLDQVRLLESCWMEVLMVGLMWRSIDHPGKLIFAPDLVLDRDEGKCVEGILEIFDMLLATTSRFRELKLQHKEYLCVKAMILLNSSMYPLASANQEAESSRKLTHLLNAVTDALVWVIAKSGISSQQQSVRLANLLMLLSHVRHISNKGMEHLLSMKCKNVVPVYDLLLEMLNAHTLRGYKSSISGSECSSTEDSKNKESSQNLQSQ
Description: as §1, with “FIG. 2:” for “FIG. 5:”, “on ER-β” for “on ER-α”, “and 50” for “and 5”, “of ER-β” for “of ER-α”
as §1, with “FIG. 6:” for “FIG. 5:”, “on ER-β” for “on ER-α”, “and 50” for “and 5”, “of ER-β” for “of ER-α”, “and” for “and were”
as §1, with “FIG. 10:” for “FIG. 5:”, “on ER-β” for “on ER-α”, “in DME+10%” for “in DME without phenol red+10%”, “and 50” for “and 5”, “of ER-β” for “of ER-α”
(§2) All the receptors were cloned from rat tissue into the PCR3.1 vector backbone. […] Cells were harvested 48 hrs after transfection, and assayed for firefly and Renilla luciferase activity.
as §2

[2] = system: pS2 (gene encoding the trefoil peptides) in MCF-7 cells; test: pS2 gene expression in MCF-7 cells (realtime RT-PCR); type: cell-based; conditions: 16 hrs
Description: MCF-7 cells were plated at 500,000 cells per well of a 6 well plate. RNA was isolated and the message levels of pS2 (gene encoding the trefoil peptides) measured and normalized to 18S ribosomal RNA by realtime polymerase chain reaction (rtPCR).
FIG. 11: Agonistic activity of the indicated compounds in MCF-7 cells. MCF-7 cells were plated at 500,000 cells per well of a 6 well plate. RNA was isolated and the message levels of pS2 gene measured and normalized to 18S ribosomal RNA by realtime rtPCR.
MCF-7 cells were plated at 500,000 cells per well of a 6 well plate. The cells were serum starved for 3 days and then were treated as above for 16 hrs. RNA was isolated and gene expression levels assessed by realtime RT-PCR, following normalization to 18S ribosomal RNA.

CCRF/CEM = conditions: estrogen receptor-negative cell line; cited from earlier work
[3] = rats; cited from earlier work
[4] = type: in vivo, human; conditions: 80 mg/day
PC-3 cells = test: Androgen independent prostate cancer cell growth; type: cell-based
Description: PC-3 cells were plated in RPMI+10% csFBS at 6000 cells per well of a 96 well plate. Medium was changed to RPMI+1% csFBS without phenol red and then treated for 72 hrs with increasing concentrations of SERMs.
The prostate cancer cell line PC-3 was plated in RPMI+10% csFBS at 6000 cells per well of a 96 well plate. Medium was changed to RPMI+1% csFBS without phenol red and cells were treated for 72 hrs with increasing concentrations of SERMs.
PC-3 growth inhibition was determined qualitatively, in vitro, and represented as a grading system based on the ability of the SERMs to inhibit growth. The number −4 is for compounds that induced 100% growth inhibition at 1 uM, −3 for compounds that inhibit growth by about 75-90%, −2 for about 50-70% and −1 for inhibition less than 50% growth.

[5] = baseline to month 12, compared to placebo

% estardiol activity, ER-α (ER-α): 48%
SMILES: O=C(c1ccccc1)N(c1ccc(O)cc1)c1ccc(O)cc1 [Compound 3d, N,N-bis-(4-hydroxyphenyl)-benzamide]
estrogenic activity in terms of uterine weight (uterus): exhibited estrogenic activity, in terms of increased uterine weight
osteoblast activity (osteoblasts): stimulated osteoblasts
osteoclast differentiation / osteoclast activity [1]: suppressed osteoclasts

% estardiol activity, ER-α (ER-α): 133%
ER-α activity (luciferase expression), compound alone (ER-α; COS or 293 cells): most potent in stimulating ER-α
ER-β LUC expression, compound alone (ER-β): most potent in stimulating ER-β
SMILES: O=C(c1ccc(O)cc1)N(c1ccccc1)c1ccccc1 [Compound 3e, 4-hydroxy-N,N-diphenyl-benzamide]
estrogenic activity in terms of uterine weight (uterus): exhibited no estrogenic, or anti-estrogenic activity in uterus
pS2 expression [2]: increased pS2 expression levels
osteoblast activity (osteoblasts): stimulated osteoblast activity
osteoclast differentiation / osteoclast activity [1]: highly suppressive of osteoclast activity

SMILES: CCN(CC)CCOc1ccc(C(=C(Cl)c2ccccc2)c2ccccc2)cc1 [clomiphene]
viability of CCRF/CEM cells (CCRF/CEM): cause a decrease in viability

SMILES: C[C@]12CC[C@@H]3c4ccc(O)cc4CC[C@H]3[C@@H]1CC[C@@H]2O [estrogen, Estradiol, reference compound]
pS2 expression [2]: increased pS2
incidence of lipo-polysaccharide induced inflammatory responses [3]: reduce the incidence of lipo-polysacharride induced inflammatory responses
osteoclast differentiation / osteoclast activity [1]: strongly suppressed osteoclast differentiation

SMILES: COc1ccc2c(c1)CCC(c1ccccc1)=C2c1ccc(OCCN2CCCC2)cc1 [nafoxidine]
viability of CCRF/CEM cells (CCRF/CEM): cause a decrease in viability

SMILES: CC/C(=C(\c1ccccc1)c1ccc(OCCN(C)C)cc1)c1ccccc1 [tamoxifen]
incidence of lipo-polysaccharide induced inflammatory responses [3]: reduce the incidence of lipo-polysacharride induced inflammatory responses
viability of CCRF/CEM cells (CCRF/CEM): cause a decrease in viability

SMILES: CN(C)CCOc1ccc(/C(=C(/CCCl)c2ccccc2)c2ccccc2)cc1 [toremifene]
serum lipid parameters overall [4]: statistically significant improvement in all serum lipid parameters measured
change in HDL levels [4, 5]: +5.4%
change in LDL [4, 5]: −9.0%
change in total circulating cholesterol [4, 5]: −7.1%
change in triglyceride levels [4, 5]: −20.1%
inhibition at 10 µM (PC-3 cells; Homo sapiens, PC-3, 10 μM, 72 hrs): 100%
PC-3 growth inhibition, qualitative grading (PC-3 cells; in vitro, data not shown): −2 (−2 for about 50-70%)
osteoclast differentiation / osteoclast activity [1]: minimally but dose-dependently suppressed the osteoclast differentiation

— patent publication US8158828B2, “Nuclear receptor binding agents” (priority 2005, dated 2012)
